Laboratory results taken from patent US20250114448A1, “SAPONIN-BASED ADJUVANTS AND VACCINES” (ASOCIACIÓN CENTRO DE INVESTIGACIÓN COOPERATIVA EN …, priority 2022, published 2025).

How the values were obtained:
Design in all cases: species or system mice (C57BL/6)
[1] = tested on: anti-MUC1 IgG antibodies; experiment: Self-adjuvanting vaccine: anti-MUC1 total IgG (ELISA, BSA-MUC1 coated plates) in sera of immunized mice (In Vivo Experiment 2); details: C57BL/6 mice, subcutaneous, days 0, 11, 21, dose equimolar to 50 μg of MUC1 per injection, no external adjuvant, endpoint sera day 28, versus pre-sera
Procedure: (§1) Concerning the saponin-antigen conjugates, groups of five mice (C57BL/6, female, 6-8 weeks old) were vaccinated subcutaneously three times every […] (days 0, 11, and 21) with the glycoconjugate constructs (50 μg/mouse) in phosphate-buffered saline (PBS, 100 μl). To determine the antibody responses over time, mice were bled via submandibular vein at the indicated post-vaccination time point (day 18), and by cardiac puncture at the experimental endpoint (day 28). Blood was collected in BD Microtainer® tubes (Clot Activator/SST™ Gel) and centrifuged at 13000 g for 10 min. Sera were harvested and stored at −20° C. until further analysis.
(§2) Quantification of antibody production. Antibody titers against OVA protein for the saponin adjuvants, or against MUC1 and TnMUC1 antigens in the case of the conjugate constructs were measured by an indirect enzyme-linked immunosorbent assay (ELISA). Briefly, ELISA plates (Thermo Scientific) were coated with endotoxin-free OVA (EndoFit™ Ovalbumin; Invitrogen) or with BSA-MUC1 or BSA-TnMUC1 conjugates at 0.05 μg/well in carbonate buffer (pH 9.5), and plates were incubated overnight at 4° C. After washing the wells (PBS, 10 mM, containing 0.05% Tween 20), plates were blocked with 10% of fetal calf serum (FCS, Biowest) in PBS buffer for 1 h. […] Absorbance (OD, 450 nm) was immediately measured using a BioTek® Synergy HT multi-detection microplate reader. […]

[2] = tested on: anti-OVA IgG antibodies; experiment: Adjuvant activity: anti-OVA total IgG (ELISA) in sera of mice vaccinated with OVA plus saponin (In Vivo Experiment 1); details: C75BL6 mice, three subcutaneous injections 10 days apart, OVA 10 μg + saponin 50 μg, endpoint sera day 28, total IgG ELISA
Procedure: Vaccination of mice. In the case of the synthetic saponin adjuvants, groups of five mice (C57BL/6, female, 6-8 weeks old) were vaccinated subcutaneously three times every 10 days (days 0, 11, and 21) with endotoxin-free OVA (EndoFit™ Ovalbumin, Invitrogen) (10 μg/mouse) in phosphate-buffered saline (PBS, 100 μL) either alone (no-adjuvant control group) or with the synthetic saponins (50 μg/mouse). To analyze the antibody responses over time, mice were bled via the submandibular vein at the indicated pre-(day −1) and post-vaccination time points (days 18), and by cardiac puncture at the experimental endpoint (day 28). Blood was collected in BD Microtainer® tubes (Clot Activator/SST™ Gel) and centrifuged at 7500 g for 10 min, after which serum was harvested and stored at −20° C. until further analysis.
Quantification of antibody production. Antibody titers against OVA protein for the saponin adjuvants, or against MUC1 and TnMUC1 antigens in the case of the conjugate constructs were measured by an indirect enzyme-linked immunosorbent assay (ELISA). Briefly, ELISA plates (Thermo Scientific) were coated with endotoxin-free OVA (EndoFit™ Ovalbumin; Invitrogen) or with BSA-MUC1 or BSA-TnMUC1 conjugates at 0.05 μg/well in carbonate buffer (pH 9.5), and plates were incubated overnight at 4° C. After washing the wells (PBS, 10 mM, containing 0.05% Tween 20), plates were blocked with 10% of fetal calf serum (FCS, Biowest) in PBS buffer for 1 h. Serial dilutions of mouse sera in blocking buffer (10% FCS in PBS buffer) were added to the wells with appropriate controls and incubated for 1 h at room temperature. After washing, goat anti-mouse total IgG (Jackson ImmunoResearch) or subclass specific IgG1, IgG2b, IgG2c and IgG3 (SouthernBiotech) antibodies conjugated to horseradish peroxidase (HRP) were added to each well at the dilution indicated by the manufacturer. After 1 h incubation at room temperature, KPL SureBlue Reserve™ commercial solution (100 μL/well, SeraCare) containing 3,3′,5,5′-tetramethylbenzidine (TMB) was added as peroxidase substrate and after incubation for 10 min, the reaction was stopped with 2 N H2SO4 (100 μL/well). Absorbance (OD, 450 nm) was immediately measured using a BioTek® Synergy HT multi-detection microplate reader.
A straightforward proof-of-principle in vivo experiment was carried out to directly compare their adjuvant activities of prior art compound 12 and the compounds of the invention 1 and 2 in terms of IgG antibody production, using chicken ovalbumin (OVA) as a model antigen. […] Endpoint sera after three immunizations were probed via ELISA assays by coating 96-well plates with OVA (0.05 μg/ml) and total IgG optical density (OD) values (at day 28) were measured (FIG. 1).

[3] = tested on: anti-TnMUC1 IgG antibodies; experiment: Self-adjuvanting vaccine: anti-TnMUC1 total IgG (ELISA, BSA-TnMUC1 coated plates) in sera of immunized mice (In Vivo Experiment 2); details: C57BL/6 mice, subcutaneous, days 0, 11, 21, dose equimolar to 50 μg of MUC1 per injection, no external adjuvant, endpoint sera day 28, versus pre-sera
Procedure: as §1, §2

| Structure (SMILES) | production of total anti-MUC1 IgG antibodies [1] | anti-OVA IgG antibody response versus negative control group (OVA alone) [2] | anti-OVA IgG titers compared to those induced by previous EA lead saponin 12 (C3-hydroxyl) [2] | production of total anti-TnMUC1 IgG antibodies [3] |
| --- | --- | --- | --- | --- |
| CC[C@H](C)C(NC(=O)[C@H](CCCCN)NC(=O)[C@H](Cc1c[nH]c2ccccc12)NC(=O)[C@@H](NC(=O)[C@H](C)NC(=O)[C@H](Cc1ccccc1)NC(=O)[C@H](CC(C)C)NC(=O)[C@H](CCCCN)CC(=O)NO/N=C1/CCC2(C)C(CCC3(C)C2CC=C2C4CC(C)(C)CC[C@]4(C(=O)O[C@]4([C@@H]5OC(C)[C@H](O[C@@H]6OC[C@@H](O)C(O)C6O)C(O)C5O)OC(CO)[C@H](NC(=O)CCCCCNC(=O)COCCOCCOCC(=O)NCC(=O)N[C@H](C(=O)N[C@H](C(=O)O[C@@H](CO)C(=O)N[C@@H](C)C(=O)N5CCC[C@H]5C(=O)N[C@@H](CC(=O)O)C(=O)N[C@H](C(=O)N[C@@H](CCCNC(=N)N)C(=O)N5CCC[C@H]5C(=O)N[C@@H](C)C(=O)N5CCC[C@H]5C(=O)NCC(=O)N[C@@H](CO)C(=O)N[C@H](C(=O)N[C@@H](C)C(N)=O)C(C)O)C(C)O)C(C)O)C(C)C)C(O)C4O)C(O)CC23C)C1(C)C)C(C)C)C(=O)N[C@H](C(=O)N[C@@H](Cc1ccc(O)cc1)C(=O)N[C@@H](CCCCN)C(=O)N[C@@H](CC(=O)O)C(=O)N[C@H](C(=O)O)[C@@H](C)O)[C@@H](C)O (stereo partly drawn) [compound 10, PV-Echinocystic Acid Saponin-MUC1 Tri-Conjugate] | high levels | – | – | – |
| C[C@@H]1O[C@@H](O[C@H]2[C@H](OC(=O)[C@]34CCC(C)(C)C[C@H]3C3=CC[C@@H]5[C@@]6(C)CC/C(=N/O)C(C)(C)[C@@H]6CC[C@@]5(C)[C@]3(C)C[C@H]4O)O[C@H](CO)[C@H](NC(=O)CCCCCCCCCCC(=O)O)[C@@H]2O)[C@H](O)[C@H](O)[C@H]1O[C@@H]1OC[C@@H](O)[C@H](O)[C@H]1O [compound 2] | – | significantly higher than that of the negative control group | increased (significantly in the latter case) | – |
| CC[C@H](C)C(NC(=O)[C@H](CCCCN)NC(=O)[C@H](Cc1c[nH]c2ccccc12)NC(=O)[C@@H](NC(=O)[C@H](C)NC(=O)[C@H](Cc1ccccc1)NC(=O)[C@H](CC(C)C)NC(=O)[C@H](CCCCN)CC(=O)NO/N=C1/CCC2(C)C(CCC3(C)C2CC=C2C4CC(C)(C)CC[C@]4(C(=O)O[C@]4([C@@H]5OC(C)[C@H](O[C@@H]6OC[C@@H](O)C(O)C6O)C(O)C5O)OC(CO)[C@H](NC(=O)CCCCCNC(=O)COCCOCCOCC(=O)NCC(=O)N[C@H](C(=O)N[C@H](C(=O)O[C@@H](CO)C(=O)N[C@@H](C)C(=O)N5CCC[C@H]5C(=O)N[C@@H](CC(=O)O)C(=O)N[C@H](C(=O)N[C@@H](CCCNC(=N)N)C(=O)N5CCC[C@H]5C(=O)N[C@@H](C)C(=O)N5CCC[C@H]5C(=O)NCC(=O)N[C@@H](CO)C(=O)N[C@H](C(=O)N[C@@H](C)C(N)=O)C(C)O)C(C)O[C@H]5OC(CO)[C@H](O)C(O)C5NC(C)=O)C(C)O)C(C)C)C(O)C4O)C(O)CC23C)C1(C)C)C(C)C)C(=O)N[C@H](C(=O)N[C@@H](Cc1ccc(O)cc1)C(=O)N[C@@H](CCCCN)C(=O)N[C@@H](CC(=O)O)C(=O)N[C@H](C(=O)O)[C@@H](C)O)[C@@H](C)O (stereo partly drawn) [compound 11, PV-Echinocystic Acid Saponin-TnMUC1 Tri-Conjugate] | – | – | – | high levels |
| C[C@@H]1O[C@@H](O[C@H]2[C@H](OC(=O)[C@]34CCC(C)(C)C[C@H]3C3=CC[C@@H]5[C@@]6(C)CCC(=O)C(C)(C)[C@@H]6CC[C@@]5(C)[C@]3(C)C[C@H]4O)O[C@H](CO)[C@H](NC(=O)CCCCCCCCCCC(=O)O)[C@@H]2O)[C@H](O)[C@H](O)[C@H]1O[C@@H]1OC[C@@H](O)[C@H](O)[C@H]1O [compound 1] | – | significantly higher than that of the negative control group | increased | – |
